We go through two compounds from ChEMBL document CHEMBL4732046, “A red-light-activated sulfonamide porphycene for highly efficient photodynamic therapy against hypoxic tumor” (Eur J Med Chem, 2021).

Assay [1] relates to HeLa. As to the kind of experiment: Photocytotoxicity against human HeLa cells assessed as reduction in cell viability irradiated with 640 +/- 15 nm red LED for 4 hrs measured after 24 hrs under hypoxic condition by MTT assay. It counts as functional, cell-based. Particulars: light or radiation study.
Assay [2] deals with A-375. As to the kind of experiment: Photocytotoxicity against human A-375 cells assessed as reduction in cell viability irradiated with 640 +/- 15 nm red LED for 4 hrs measured after 24 hrs under hypoxic condition by MTT assay. It counts as functional, cell-based. Particulars: A-375, light or radiation study. A general note: Tetrazolium assays rely on reduction of a dye to a coloured formazan, in cell work by metabolically active cells.

Assay [3] has as its system HeLa. As to the kind of experiment: Photo-therapeutic index, ratio of LD50 for photocytotoxicity against human HeLa cells assessed as reduction in cell viability irradiated with 640 +/- 15 nm red LED for 4 hrs measured after 24 hrs by MTT assay to LD50 for cytotoxicity against human HeLa cells assessed as cell viability in dark measured after 24 hrs by MTT assay. In kind it is functional.

For assay [4], the system named is A-375. As to the kind of experiment: Photocytotoxicity against human A-375 cells assessed as reduction in cell viability irradiated with 640 +/- 15 nm red LED for 4 hrs measured after 24 hrs by MTT assay. In kind it is functional, cell-based. The settings on record: A-375, light or radiation study.
The subject of assay [5] is HeLa. As to the kind of experiment: Photocytotoxicity against human HeLa cells assessed as reduction in cell viability irradiated with 640 +/- 15 nm red LED for 4 hrs measured after 24 hrs by MTT assay. In kind it is functional, cell-based. Particulars: light or radiation study.
Assay [6] has as its system B16. Kind of assay: Photocytotoxicity against mouse B16 cells assessed as reduction in cell viability irradiated with 640 +/- 15 nm red LED for 4 hrs measured after 24 hrs by MTT assay. It counts as functional, cell-based. The settings on record: B16, light or radiation study.
Assay [7] has as its system B16. Kind of assay: Photocytotoxicity against mouse B16 cells assessed as reduction in cell viability irradiated with 640 +/- 15 nm red LED for 4 hrs measured after 24 hrs under hypoxic condition by MTT assay. In kind it is functional, cell-based. The settings on record: B16, light or radiation study.
The test system of assay [8] is KYSE-70 cell line. As to the kind of experiment: Cytotoxicity against human KYSE-70 cells assessed as cell viability in dark measured after 24 hrs by MTT assay. It counts as functional, cell-based. Particulars: KYSE-70, 24 h.
In assay [9] the test system is B16. Kind of assay: Cytotoxicity against mouse B16 cells assessed as cell viability in dark measured after 24 hrs by MTT assay. In kind it is functional, cell-based. The settings on record: B16, 24 h.
Assay [10] relates to KYSE-70 cell line. As to the kind of experiment: Photocytotoxicity against human KYSE-70 cells assessed as reduction in cell viability irradiated with 640 +/- 15 nm red LED for 4 hrs measured after 24 hrs by MTT assay. In kind it is functional, cell-based. The settings on record: KYSE-70, light or radiation study.
For assay [11], the system named is HeLa. As to the kind of experiment: Cytotoxicity against human HeLa cells assessed as cell viability in dark measured after 24 hrs by MTT assay. It counts as functional, cell-based.
In assay [12] the test system is KYSE-70 cell line. Kind of assay: Photocytotoxicity against human KYSE-70 cells assessed as reduction in cell viability irradiated with 640 +/- 15 nm red LED for 4 hrs measured after 24 hrs under hypoxic condition by MTT assay. In kind it is functional, cell-based. Particulars: KYSE-70, light or radiation study.
Assay [13] relates to A-375. As to the kind of experiment: Cytotoxicity against human A-375 cells assessed as cell viability in dark measured after 24 hrs by MTT assay. Particulars: A-375, 24 h. It counts as functional, cell-based.

`CC(C)(C)C1=Cc2nc1ccc1[nH]c(cc1C(C)(C)C)c1nc(ccc3[nH]c2cc3S(=O)(=O)NCCOCCO)C(S(=O)(=O)NCCOCCO)=C1`: the DC50 in the assay on HeLa [1] stood at 329 nM; with A-375 [2] it was 57 nM; in the assay with A-375 [4], 23 nM; with HeLa [5], 69 nM; with B16 [6] it was 168 nM; with B16 [7], 370 nM. For the same compound, the DC50 in the assay with KYSE-70 cell line [8] came to 28000 nM; in the assay on B16 [9], 57000 nM; in the assay with KYSE-70 cell line [10], 5 nM; with HeLa [11], 24000 nM; in the assay on KYSE-70 cell line [12], 24 nM; in the assay on A-375 [13], 28000 nM. For the same compound, the Ratio in the assay with HeLa [3] stood at 73.
As to `CC/N=c1/cc2sc3cc(N(CC)CC)ccc3nc-2c2ccccc12`, the DC50 amounted to 1030 nM in the assay with HeLa [1]; 1300 nM with A-375 [2]; 507 nM with A-375 [4]; 95 nM with HeLa [5]; 930 nM in the assay on B16 [6]; 1890 nM in the assay with B16 [7]. Further, the DC50 with KYSE-70 cell line [8] came to 4000 nM; in the assay on B16 [9] it was 11000 nM; with KYSE-70 cell line [10] it was 305 nM; with HeLa [11], 7000 nM; in the assay with KYSE-70 cell line [12], 809 nM; in the assay on A-375 [13], 1000 nM.
